In patent EP1228058B1, “BENZOPYRANYL GUANIDINE DERIVATIVES, PROCESS FOR PREPARATION THEREOF, AND PHARMACEUTICAL COMPOSITIONS CONTAINING THEM” (Dongbu Hannong Chemical Co., Ltd., priority 1999, dated 2001):

Test: Acute oral toxicity test in rats
Settings: rat, in vivo, single oral dose in 0.5% methyl cellulose, read-out: lethal dose (LD50) for oral administration
Procedure: In this test six-week old SPF SD rats were used with two rats assigned to each group. The compounds of examples 1, 2, 3, 5, 7, 8, 9, 10, 13, 14, 15, 19, 22, 23, 24, 25, 26, 28, 29, 30, 31, 32, 33, 34, 35, 36, 37, 38, 39, 40, 41, 44, 46, 47, 48, 49, 51, 52, 57, 58, 60, 62, 64, 67, 68, 69, 71 and 72 were suspended in 0.5% methyl cellulose, respectively, and administered orally at a single dose of 1 g/kg using a ball-tipped needle. The dosing volume was 10 ml/kg. […] All survivors at the end of the observation period underwent laparotomy under ether anesthesia and the blood samples were taken from the abdominal aorta for hematological tests and biochemical analysis. After sacrificing the animals, autopsy was performed for macroscopic observation of the organs and tissues. Tissue samples of vital organs from macroscopic legion were removed and fixed in 10% neutral buffered formalin solution, then processed by standard procedures for histopathology and examined under light microscope. There were no significant changes in clinical symptoms, body weight and mortalities. Also in hematology, serum chemistry parameters and macroscopic observation, no drug-related changes were observed.

Row | Structure (SMILES) | LD50 [mg/kg]
1 | C[C@]1(CO)Oc2ccc([N+](=O)[O-])cc2[C@@H](NC(=NC#N)Nc2ccc(Cl)cc2)[C@@H]1O [Example 29, (2R, 3S, 4R)-N''-cyano-N-(6-nitro-3,4-dihydro-3-hydroxy-2-methyl-2-hydroxymethyl-2H-benzopyran-4-yl)-N'-(4-chlorophenyl)guanidine] | > 1000
2 | COC[C@@]1(C)Oc2ccc([N+](=O)[O-])cc2[C@H](NC(=NC#N)Nc2ccc(Cl)cc2)[C@H]1O [Example 30, (2R, 3R, 4S)-N''-cyano-N-(6-nitro-3,4-dihydro-3-hydroxy-2-methyl-2-methoxymethyl-2H-benzopyran-4-yl)-N'-(4-chlorophenyl)guanidine] | > 1000
3 | COC[C@@]1(C)Oc2ccc([N+](=O)[O-])cc2[C@@H](NC(=NC#N)Nc2ccc(Cl)cc2)[C@@H]1O [Example 31, (2R, 3S, 4R)-N''-cyano-N-(6-nitro-3,4-dihydro-3-hydroxy-2-methyl-2-methoxymethyl-2H-benzopyran-4-yl)-N'-(4-chlorophenyl)guanidine] | > 1000
4 | COC(OC)[C@@]1(C)Oc2ccc([N+](=O)[O-])cc2[C@@H](NC(=NC#N)Nc2ccccc2Cl)[C@@H]1O [Example 33, (2S, 3S, 4R)-N''-cyano-N-(6-nitro-3,4-dihydro-3-hydroxy-2-methyl-2-dimethoxymethyl-2H-benzopyran-4-yl)-N'-(2-chlorophenyl)guanidine] | > 1000
5 | COC(OC)[C@@]1(C)Oc2ccc([N+](=O)[O-])cc2[C@H](NC(=NC#N)Nc2ccccc2C(F)(F)F)[C@H]1O [Example 34, (2S, 3R, 4S)-N''-cyano-N-(6-nitro-3,4-dihydro-3-hydroxy-2-methyl-2-dimethoxymethyl-2H-benzopyran-4-yl)-N'-(2-trifluoromethylphenyl)guanidine] | > 1000
6 | COC(OC)[C@@]1(C)Oc2ccc([N+](=O)[O-])cc2[C@@H](NC(=NC#N)Nc2ccccc2C(F)(F)F)[C@@H]1O [Example 35, (2S, 3S, 4R)-N''-cyano-N-(6-nitro-3,4-dihydro-3-hydroxy-2-methyl-2-dimethoxymethyl-2H-benzopyran-4-yl)-N'-(2-trifluoromethylphenyl)guanidine] | > 1000
7 | COC(OC)[C@@]1(C)Oc2ccc([N+](=O)[O-])cc2[C@H](NC(=NC#N)NCc2ccccc2Cl)[C@H]1O [Example 36, (2S, 3R, 4S)-N''-cyano-N-(6 - nitro-3,4-dihydro-3-hydroxy-2-methyl-2-dimethoxymethyl-2H-benzopyran-4-yl)-N'-(2-chlorobenzyl)guanidine] | > 1000
8 | COC(OC)[C@@]1(C)Oc2ccc([N+](=O)[O-])cc2[C@@H](NC(=NC#N)NCc2ccccc2Cl)[C@@H]1O [Example 37, (2S, 3S, 4R)-N''-cyano-N-(6-nitro-3,4-dihydro-3-hydroxy-2-methyl-2-dimethoxymethyl-2H-benzopyran-4-yl)-N'-(2-chlorobenzyl)guanidine] | > 1000
9 | COC(OC)[C@]1(C)C=C(NC(=NC#N)NCc2ccccc2)c2cc([N+](=O)[O-])ccc2O1 [Example 39, (2S)-N''-cyano-N-(6-nitro-2-methyl-2-dimethoxymethyl-2H-benzopyran-4-yl)-N'-benzylguanidine] | > 1000
10 | COC(OC)[C@@]1(C)Oc2ccc(C#N)cc2[C@H](NC(=NC#N)Nc2ccc(Cl)cc2)[C@H]1O [Example 44, (2S, 3R, 4S)-N''-cyano-N-(6-cyano-3,4-dihydro-3-hydroxy-2-methyl-2-dimethoxymethyl-2H-benzopyran-4-yl)-N'-(4-chlorophenyl)guanidine] | > 1000
11 | COC(OC)[C@@]1(C)Oc2ccc(C#N)cc2[C@H](NC(=NC#N)NCc2ccccc2)[C@H]1O [Example 46, (2S, 3R, 4S)-N''-cyano-N-(6-cyano-3,4-dihydro-3-hydroxy-2-methyl-2-dimethoxymethyl-2H-benzopyran-4-yl)-N'-benzylguanidine] | > 1000
